We go through two compounds from the NIST ThermoML archive (doi:10.1021/je3005408).

For the data set the following is noted: Liquid, Ebulliometric method (Recirculating still).

± gives the expanded uncertainty stated by the source.

Usually vapor or sublimation pressure stands for the equilibrium pressure above the liquid or solid. Turning to `CCCCOC(C)=O` [butyl ethanoate], the “vapor or sublimation pressure” value runs as follows: (361.65 K) 29.77 ± 0.34 kPa; (381.35 K) 58.85 ± 0.79 kPa; (394.25 K) 87.65 ± 1.3 kPa.
Take `C1CCCCC1` [cyclohexane]: the “vapor or sublimation pressure” value came to 29.77 ± 0.34 kPa (317.95 K), 58.85 ± 0.77 kPa (336.85 K) and 87.65 ± 1.2 kPa (349.15 K).
